In PubChem BioAssay (NCI):
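Five compound concentrations were applied to cells in 96-well plates for 48 hours; endpoints were derived by simple linear interpolation of the resulting dose-response curve. GI50: concentration for 50% inhibition of growth. Definition used: TGI = concentration required for complete inhibition of growth.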

Tests used:
Test in all cases: growth of human tumour cells (NCI), 48 h
[1] = system: MDA-MB-231 breast
[2] = system: SF-268 CNS
[3] = system: OVCAR-4 ovarian
[4] = system: SK-OV-3 ovarian
[5] = system: HCT-116 colon
[6] = system: HCC-2998 colon
[7] = system: MALME-3M melanoma
[8] = system: T-47D breast

Structure (SMILES) | GI50 [1] | TGI [1] | GI50 [2] | TGI [2] | GI50 [3] | TGI [3] | GI50 [4] | TGI [4] | GI50 [5] | TGI [5] | GI50 [6] | TGI [6] | GI50 [7] | TGI [7] | GI50 [8] | TGI [8]
C[C@H]1CCC/C=C/[C@@H]2C[C@H](N)C[C@H]2[C@H](O)/C=C/C(=O)O1 | > 100 µM | > 100 µM | > 100 µM | > 100 µM | > 100 µM | > 100 µM | > 100 µM | > 100 µM | > 100 µM | > 100 µM | > 100 µM | > 100 µM | 52.8 µM | > 100 µM | > 100 µM | > 100 µM
NCCN1CCN(c2nccc(-c3ccc4ccccc4c3)n2)CC1 | 1.66 µM | 3.31 µM | 1.75 µM | 3.49 µM | 2.41 µM | 7.5 µM | 2.1 µM | 5.34 µM | 1.79 µM | 3.3 µM | 1.74 µM | 3.46 µM | 1.83 µM | 3.52 µM | 1.88 µM | 4.59 µM
Cc1noc(C)c1-c1ccc2[nH]c(=O)n3c2c1OC[C@@H]3c1ccccn1 | 0.868 µM | > 100 µM | > 100 µM | > 100 µM | 1.03 µM | > 100 µM | 0.634 µM | > 100 µM | 2.84 µM | > 100 µM | 2 µM | > 100 µM | 1 µM | > 100 µM | 0.585 µM | > 100 µM
CC1=C(C)C(=O)O[C@@H]([C@](C)(O)[C@]2(O)CC[C@@]3(O)[C@@H]4C[C@H]5O[C@]56CC=CC(=O)[C@]6(C)[C@H]4CC[C@]23C)C1 | 0.394 µM | 7.66 µM | 0.424 µM | 2.35 µM | 0.121 µM | 15.8 µM | 0.909 µM | 18.8 µM | 0.113 µM | 1.09 µM | 0.772 µM | 2.17 µM | 0.382 µM | 3.4 µM | 0.111 µM | 1.63 µM
CN(C)CCNC(=O)Nc1c(C#N)[n+]([O-])c2cc(Cl)c(Cl)cc2[n+]1[O-] | 19.9 µM | 56.9 µM | 9.47 µM | > 100 µM | 17.8 µM | > 100 µM | 21.1 µM | 97.7 µM | 13.4 µM | > 100 µM | 27.4 µM | > 100 µM | 21.6 µM | > 100 µM | 14.6 µM | > 100 µM
Clc1ccc(OCc2nnc3n2N=C(c2ccc(Cl)cc2Cl)CS3)c(Cl)c1 | 14.9 µM | 38.3 µM | 22.9 µM | 66.5 µM | 28.1 µM | > 100 µM | 43 µM | > 100 µM | 15.2 µM | 32.8 µM | 20.3 µM | 37.2 µM | 23.8 µM | 79.7 µM | 33 µM | > 100 µM
Cc1ncc(NC(=O)c2ccc(CN3CCN(C)CC3)c(C(F)(F)F)c2)cc1Nc1nccc(-c2cccnc2)n1 | 12.5 µM | 27.3 µM | 17.4 µM | 33.7 µM | 15.5 µM | 29.4 µM | 19.3 µM | 34.2 µM | 7.92 µM | 21.7 µM | 13.4 µM | 26.6 µM | 0.582 µM | 14.4 µM | 17.9 µM | 37.5 µM
CN1CCN(Cc2ccc(NC(=O)c3ccc(C(C)(C)C)c(C#Cc4cnc5cccnn45)c3)cc2C(F)(F)F)CC1 | 1.97 µM | 4.14 µM | 1.87 µM | 3.82 µM | 4.64 µM | 19.7 µM | 11.3 µM | 24.4 µM | 1.67 µM | 3.08 µM | 1.83 µM | 3.38 µM | 1.78 µM | 3.97 µM | 2.02 µM | 5.41 µM
C=CC(=O)N1CCN(c2ncnc3c(F)c(-c4c(O)cccc4F)c(Cl)cc23)CC1 | 14.3 µM | 35.9 µM | 11.5 µM | 37.2 µM | 14.9 µM | 43.4 µM | – | – | 9.19 µM | 23.1 µM | 17.5 µM | 32.7 µM | 11.5 µM | 24.8 µM | 10.2 µM | 42.9 µM
CNc1nc(NC2CCCC2)nc(Sc2ccc(OC)cc2)n1 | > 10 µM | > 10 µM | > 10 µM | > 10 µM | > 10 µM | > 10 µM | > 10 µM | > 10 µM | > 10 µM | > 10 µM | > 10 µM | > 10 µM | > 10 µM | > 10 µM | > 10 µM | > 10 µM
N#Cc1c(-c2ccccc2)nc2c(c(-c3ccccc3)nn2-c2ccccc2)c1-c1ccc(O)cc1 | 1.7 µM | 3.31 µM | 2.83 µM | 9.14 µM | 1.95 µM | 4.66 µM | 2.87 µM | 8.48 µM | 2.63 µM | 7.32 µM | 1.84 µM | 3.47 µM | 1.62 µM | 3.83 µM | 3.05 µM | 23.8 µM
COc1ccc2c(c1)[C@@]13CCN4CC5=CCO[C@H]6CC(=O)N2[C@H]1[C@H]6[C@H]5C[C@H]43 | – | > 100 µM | – | > 100 µM | – | > 100 µM | – | > 100 µM | – | > 100 µM | – | > 100 µM | – | > 100 µM | – | > 100 µM
Cc1ccc(C(=O)CC(Sc2cccc(Cl)c2Cl)c2ccc(Cl)cc2)cc1C (stereo not drawn) | 17.9 µM | 39 µM | 21.3 µM | 48.2 µM | 34.5 µM | > 100 µM | 23.3 µM | 59.7 µM | 19.4 µM | 49.8 µM | – | – | 15.5 µM | 39.9 µM | 27.1 µM | 76.9 µM
CCN(CCO)CCNc1ccc(C)c2sc3cc(Cl)ccc3c(=O)c12 | 0.783 µM | 2.24 µM | 1.44 µM | 3.04 µM | 2.18 µM | 5.15 µM | 1.61 µM | 3.09 µM | 1.34 µM | 2.72 µM | 1.51 µM | 3.14 µM | 1.86 µM | 3.51 µM | 1.91 µM | 3.96 µM
COC(=O)NC/C=C\c1nc(CC/C=C\C(=O)OC2CC3CC(=O)O[C@@H](/C=C/CC(C)C)C[C@@H]4CCC(C)C(C[C@@H](OC)CC(C2)O3)O4)co1 (stereo partly drawn) | 4.43 µM | 47.6 µM | < 0.01 µM | 84 µM | – | – | > 100 µM | > 100 µM | < 0.01 µM | 57.5 µM | < 0.01 µM | 19 µM | 25.5 µM | 93.4 µM | 45.7 µM | > 100 µM
Cn1c(N)nc2c(nc(OCc3ccccc3)n2C2OC(CO)C(O)C2O)c1=O (stereo not drawn) | – | > 100 µM | – | > 100 µM | – | > 100 µM | – | > 100 µM | – | > 100 µM | – | – | – | > 100 µM | – | > 100 µM
